Assay results taken from patent publication US11180462B2, “Microbiocidal oxadiazole derivatives” (SYNGENTA PARTICIPATIONS AG, priority 2015, dated 2021).

How the values were obtained:
[1] = test system: Puccinia recondita f. Sp. Tritici; test: Fungicidal activity against Puccinia recondita f. sp. tritici / wheat / leaf disc preventative (brown rust); assay type: in vivo; settings: foliar, 200 ppm in the applied formulation, wheat leaf segments, preventative, compared to untreated control leaf disks, read-out: disease control
Procedure, shortened: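 Compound application precedes infection: segments of wheat cv. Kanzler, sprayed at 200 ppm, are inoculated with a spore suspension after 1 day. Incubation is at 19° C. with 75% relative humidity and 12 h light/12 h darkness, and control versus untreated leaves is rated 7 to 9 days post-application.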

[2] = test system: Puccinia recondita f. Sp. Tritici; test: Fungicidal activity against Puccinia recondita f. sp. tritici / wheat / leaf disc curative (brown rust); assay type: in vivo; settings: foliar, 24 h, 200 ppm in the applied formulation, wheat leaf segments, curative (applied 1 day after inoculation), compared to untreated control leaf disks, read-out: disease control
Procedure, shortened: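 % disease control vs untreated, scored 6–8 d post-application. Wheat cv. Kanzler segments, spore-inoculated, dark 19° C/75% RH; formulated cpd applied 1 d post-inoc; then 19° C, 75% RH, 12 h L/12 h D.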

Phakopsora Pachyrhizi = test: Fungicidal activity against Phakopsora pachyrhizi / soybean / leaf disc preventative (Asian soybean rust); assay type: in vivo; settings: foliar, 200 ppm in the applied formulation, soybean leaf disks, compared to untreated control leaf disks, read-out: disease control
Procedure, shortened: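 Preventative soybean leaf-disc test: discs on water agar sprayed with diluted formulated compound, inoculated one day later with spores on the lower surface. Held 24–36 h dark at 20°C, 75% rh, then 12 h light/day; percent disease control versus untreated discs scored 12–14 days after application.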

[3] = test system: Glomerella lagenarium (Colletotrichum lagenarium); test: Fungicidal activity against Glomerella lagenarium (Colletotrichum lagenarium) liquid culture / cucumber / preventative (anthracnose); assay type: cell-based; settings: Colletotrichum orbiculare; 20 ppm in the applied formulation; liquid culture (PDB), growth inhibition measured photometrically after 3 to 4 days; compared to untreated control; read-out: disease control
Procedure, shortened: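 Photometric read-out of fungal growth after 2–7 days, expressed as percent antifungal activity versus untreated check. Cryo-stored conidia in PDB; compound at 20 ppm; dark, 24 °C, 96% RH.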

CN(Cc1ccc(-c2noc(C(F)(F)F)n2)cc1)C(=O)C1CC1(F)F (stereo not shown) [Compound 1.523, 2,2-difluoro-N-methyl-N-[[4-[5-(trifluoromethyl)-1,2,4-oxadiazol-3-yl]phenyl]methyl]-cyclopropane-carboxamide]
≥ 80%: pest or weed control at 200 ppm [1] | pest or weed control at 200 ppm [2] | pest or weed control at 200 ppm (Phakopsora Pachyrhizi) | inhibition of growth at 20 ppm [3]

O=C(C1CCC1)N(CCO)Cc1ccc(-c2noc(C(F)(F)F)n2)cc1 [Compound 1.714, N-(2-hydroxyethyl)-N-[[4-[5-(trifluoromethyl)-1,2,4-oxadiazol-3-yl]phenyl]methyl]-cyclobutane-carboxamide]
≥ 80%: pest or weed control at 200 ppm [1] | pest or weed control at 200 ppm [2] | pest or weed control at 200 ppm (Phakopsora Pachyrhizi) | inhibition of growth at 20 ppm [3]

CCC(=O)N(Cc1ccc(-c2noc(C(F)(F)F)n2)cc1)C(C)C [Compound 1.589, N-isopropyl-N-[[4-[5-(trifluoromethyl)-1,2,4-oxadiazol-3-yl]phenyl]methyl]-propanamide]
≥ 80%: pest or weed control at 200 ppm [1] | pest or weed control at 200 ppm [2] | pest or weed control at 200 ppm (Phakopsora Pachyrhizi) | inhibition of growth at 20 ppm [3]

CCC(C)C(=O)N(Cc1ccc(-c2noc(C(F)(F)F)n2)cc1)OC (stereo not shown) [Compound 1.48, N-methoxy-2-methyl-N-[[4-[5-(trifluoromethyl)-1,2,4-oxadiazol-3-yl]phenyl]methyl]-butanamide]
≥ 80%: pest or weed control at 200 ppm [1] | pest or weed control at 200 ppm [2] | pest or weed control at 200 ppm (Phakopsora Pachyrhizi) | inhibition of growth at 20 ppm [3]

CON(C(=O)C1CC1F)C(C)c1ccc(-c2noc(C(F)(F)F)n2)cc1 (stereo not shown) [Compound 1.275, 2-fluoroN-methoxy-N-[1-[4-[5-(trifluoromethyl)-1,2,4-oxadiazol-3-yl]phenyl]ethyl]-cyclopropane-carboxamide]
≥ 80%: pest or weed control at 200 ppm [1] | pest or weed control at 200 ppm [2] | pest or weed control at 200 ppm (Phakopsora Pachyrhizi) | inhibition of growth at 20 ppm [3]

COCCN(Cc1ccc(-c2noc(C(F)(F)F)n2)cc1)C(=O)C1CC1(F)F (stereo not shown) [Compound 1.327, 2,2-difluoro-N-(2-methoxyethyl)-N-[[4-[5-(trifluoromethyl)-1,2,4-oxadiazol-3-yl]phenyl]methyl]-cyclopropane-carboxamide]
≥ 80%: pest or weed control at 200 ppm [1] | pest or weed control at 200 ppm [2] | pest or weed control at 200 ppm (Phakopsora Pachyrhizi) | inhibition of growth at 20 ppm [3]

C=CCN(Cc1ccc(-c2noc(C(F)(F)F)n2)cc1)C(=O)C1OCCO1 [Compound 1.493, N-allyl-N-[[4-[5-(trifluoromethyl)-1,2,4-oxadiazol-3-yl]phenyl]methyl]-1,3-dioxolane-2-carboxamide]
≥ 80%: pest or weed control at 200 ppm [1] | pest or weed control at 200 ppm [2] | pest or weed control at 200 ppm (Phakopsora Pachyrhizi) | inhibition of growth at 20 ppm [3]

CON(Cc1ccc(-c2noc(C(F)(F)F)n2)cc1)C(=O)NC1CCCC1 [Compound 3.23, 3-cyclopentyl-1-methoxy-1-[[4-[5-(trifluoromethyl)-1,2,4-oxadiazol-3-yl]phenyl]methyl]urea]
≥ 80%: pest or weed control at 200 ppm [1] | pest or weed control at 200 ppm [2] | pest or weed control at 200 ppm (Phakopsora Pachyrhizi) | inhibition of growth at 20 ppm [3]

CCCON(Cc1ccc(-c2noc(C(F)(F)F)n2)cc1)C(=O)C(C)OC (stereo not shown) [Compound 1.316, 2-methoxy-N-propoxy-N-[[4-[5-(trifluoromethyl)-1,2,4-oxadiazol-3-yl]phenyl]methyl]-propanamide]
≥ 80%: pest or weed control at 200 ppm [1] | pest or weed control at 200 ppm [2] | pest or weed control at 200 ppm (Phakopsora Pachyrhizi) | inhibition of growth at 20 ppm [3]

CC(C)N(Cc1ccc(-c2noc(C(F)(F)F)n2)cc1)C(=O)CC(F)(F)F [Compound 1.686, 3,3,3-trifluoro-N-isopropyl-N-[[4-[5-(trifluoromethyl)-1,2,4-oxadiazol-3-yl]phenyl]methyl]-propanamide]
≥ 80%: pest or weed control at 200 ppm [1] | pest or weed control at 200 ppm [2] | pest or weed control at 200 ppm (Phakopsora Pachyrhizi) | inhibition of growth at 20 ppm [3]

CCCN(Cc1ccc(-c2noc(C(F)(F)F)n2)cc1)C(=O)C1CC1(F)F (stereo not shown) [Compound 1.652, 2,2-difluoro-N-propyl-N-[[4-[5-(trifluoromethyl)-1,2,4-oxadiazol-3-yl]phenyl]methyl]-cyclopropane-carboxamide]
≥ 80%: pest or weed control at 200 ppm [1] | pest or weed control at 200 ppm [2] | pest or weed control at 200 ppm (Phakopsora Pachyrhizi) | inhibition of growth at 20 ppm [3]

O=C(C1CCOC1)N(Cc1ccc(-c2noc(C(F)(F)F)n2)cc1)C1CC1 (stereo not shown) [Compound 1.103, N-cyclopropyl-N-[[4-[5-(trifluoromethyl)-1,2,4-oxadiazol-3-yl]phenyl]methyl]-tetrahydrofuran-3-carboxamide]
≥ 80%: pest or weed control at 200 ppm [1] | pest or weed control at 200 ppm [2] | pest or weed control at 200 ppm (Phakopsora Pachyrhizi) | inhibition of growth at 20 ppm [3]

O=C(C1CCOC1)N(O)Cc1ccc(-c2noc(C(F)(F)F)n2)cc1 (stereo not shown) [Compound 1.756, N-hydroxy-N-[[4-[5-(trifluoromethyl)-1,2,4-oxadiazol-3-yl]phenyl]methyl]-tetrahydrofuran-3-carboxamide]
≥ 80%: pest or weed control at 200 ppm [1] | pest or weed control at 200 ppm [2] | pest or weed control at 200 ppm (Phakopsora Pachyrhizi) | inhibition of growth at 20 ppm [3]

C=C(C)C(=O)N(Cc1ccc(-c2noc(C(F)(F)F)n2)cc1)OC [Compound 1.45, N-methoxy-2-methyl-N-[[4-[5-(trifluoromethyl)-1,2,4-oxadiazol-3-yl]phenyl]methyl]-prop-2-enamide]
≥ 80%: pest or weed control at 200 ppm [1] | pest or weed control at 200 ppm [2] | pest or weed control at 200 ppm (Phakopsora Pachyrhizi) | inhibition of growth at 20 ppm [3]

CCCN(Cc1ccc(-c2noc(C(F)(F)F)n2)cc1)C(=O)C(C)CC (stereo not shown) [Compound 1.659, 2-methyl-N-propyl-N-[[4-[5-(trifluoromethyl)-1,2,4-oxadiazol-3-yl]phenyl]methyl]-butanamide]
≥ 80%: pest or weed control at 200 ppm [1] | pest or weed control at 200 ppm [2] | pest or weed control at 200 ppm (Phakopsora Pachyrhizi) | inhibition of growth at 20 ppm [3]

O=C(CC1CC1)ON(Cc1ccc(-c2noc(C(F)(F)F)n2)cc1)C(=O)CC1CC1 [Compound 1.775, [(2-cyclo-propylacetyl)-[[4-[5-(trifluoromethyl)-1,2,4-oxadiazol-3-yl]phenyl]methyl]-amino] 2-cyclopropylacetale]
≥ 80%: pest or weed control at 200 ppm [1] | pest or weed control at 200 ppm [2] | pest or weed control at 200 ppm (Phakopsora Pachyrhizi) | inhibition of growth at 20 ppm [3]

CCOCC(=O)N(CCOC)Cc1ccc(-c2noc(C(F)(F)F)n2)cc1 [Compound 1.339, 2-ethoxy-N-(2-methoxyethyl)-N-[[4-[5-(trifluoromethyl)-1,2,4-oxadiazol-3-yl]phenyl]methyl]-acetamide]
≥ 80%: pest or weed control at 200 ppm [1] | pest or weed control at 200 ppm [2] | pest or weed control at 200 ppm (Phakopsora Pachyrhizi) | inhibition of growth at 20 ppm [3]

CC(=O)N(Cc1ccc(-c2noc(C(F)(F)F)n2)cc1)C(C)C [Compound 1.687, N-isopropyl-N-[[4-[5-(trifluoromethyl)-1,2,4-oxadiazol-3-yl]phenyl]methyl]-acetamide]
≥ 80%: pest or weed control at 200 ppm [1] | pest or weed control at 200 ppm [2] | pest or weed control at 200 ppm (Phakopsora Pachyrhizi) | inhibition of growth at 20 ppm [3]

CC(C)C(=O)N(Cc1ccc(-c2noc(C(F)(F)F)n2)cc1)C1COC1 [Compound 1.738, 2-methyl-N-(oxetan-3-yl)-N-[[4-[5-(trifiuoromethyl)-1,2,4-oxadiazol-3-yl]phenyl]methyl]-propanamide]
≥ 80%: pest or weed control at 200 ppm [1] | pest or weed control at 200 ppm [2] | pest or weed control at 200 ppm (Phakopsora Pachyrhizi) | inhibition of growth at 20 ppm [3]

CC(C)C(=O)N(Cc1ccc(-c2noc(C(F)(F)F)n2)cc1)CC1CC1 [Compound 1.206, N-(cyclopropylmethyl)-2-methyl-N-[[4-[5-(trifluoromethyl)-1,2,4-oxadiazol-3-yl]phenyl]methyl]-propanamide]
≥ 80%: pest or weed control at 200 ppm [1] | pest or weed control at 200 ppm [2] | pest or weed control at 200 ppm (Phakopsora Pachyrhizi) | inhibition of growth at 20 ppm [3]

O=C(C1CSC1)N(Cc1ccc(-c2noc(C(F)(F)F)n2)cc1)CC1CC1 [Compound 1.216, N-(cyclopropylmethyl)-N-[[4-[5-(trifluoromethyl)-1,2,4-oxadiazol-3-yl]phenyl]methyl]-thietane-3-carboxamide]
≥ 80%: pest or weed control at 200 ppm [1] | pest or weed control at 200 ppm [2] | pest or weed control at 200 ppm (Phakopsora Pachyrhizi) | inhibition of growth at 20 ppm [3]

C#CCN(Cc1ccc(-c2noc(C(F)(F)F)n2)cc1)C(=O)Cc1cccnc1 [Compound 1.170, N-prop-2-ynyl-2-(3-pyridyl)-N-[[4-[5-(trifluoromethyl)-1,2,4-oxadiazol-3-yl]phenyl]methyl]-acetamide]
≥ 80%: pest or weed control at 200 ppm [1] | pest or weed control at 200 ppm [2] | pest or weed control at 200 ppm (Phakopsora Pachyrhizi) | inhibition of growth at 20 ppm [3]

COC(C)C(=O)OCCN(Cc1ccc(-c2noc(C(F)(F)F)n2)cc1)C(=O)C(C)OC (stereo not shown) [Compound 1.732, 2-[2-methoxypropanoyl-[[4-[5-(trifluoromethyl)-1,2,4-oxadiazol-3-yl]phenyl]methyl]-amino]ethyl 2-methoxypropanoate]
≥ 80%: pest or weed control at 200 ppm [1] | pest or weed control at 200 ppm [2] | pest or weed control at 200 ppm (Phakopsora Pachyrhizi)
